Assay results: patent US11919872B1, “N′-(2-(5-(4-chlorophenyl)-1,3,4-oxadiazol-2-ylthio)acetoxy)benzimidamide as an antimicrobial compound” (KING FAISAL UNIVERSITY, priority 2023, dated 2024)
Where “and” joins values, the source holds several entries; their conditions need not be identical. Equal values may be shown once.

Assays:
[1] = test system: Staphylococcus aureus; experiment: Agar plate disc-diffusion, antibacterial inhibition zone; assay type: cell-based; conditions: nutrient agar, 37° C., 48 hours
Protocol: (§1) The agar plate disc-diffusion method was applied. Sterilized filter papers (6 mm in diameter) were wetted with 10 μL of a solution of N′-(2-(5-(4-chlorophenyl)-1,3,4-oxadiazol-2-ylthio)acetoxy)benzimidamide (3) to be tested, containing 10 mg/mL in DMSO, and the discs were allowed to air dry. The discs were then placed onto the surface of agar plates (nutrient agar for bacteria and Sabouraud's dextrose agar for fungi) seeded with the test organism. Each plate contained 15 mL of the agar medium, previously seeded with 0.2 mL of the broth culture of each organism pregrown for 18 hours. The plates were incubated at 37° C. for 48 hours and 72 hours for fungi. The inhibition zones were measured in mm. Discs impregnated with DMSO were used as a control, and their inhibition zone was subtracted from the tested compound's actual inhibition zone.

[2] = test system: Pseudomonas aeruginosa; experiment: as above; assay type: cell-based; conditions: nutrient agar, 37° C., 48 hours
Protocol: as §1

[3] = test system: Bacillus cereus; experiment: as above; assay type: cell-based; conditions: nutrient agar, 37° C., 48 hours
Protocol: as §1

[4] = test system: Escherichia coli; experiment: as above; assay type: cell-based; conditions: nutrient agar, 37° C., 48 hours
Protocol: as §1

[5] = test system: Chrysosporium keratinophilum; experiment: Agar plate disc-diffusion, antifungal inhibition zone; assay type: cell-based; conditions: Sabouraud's dextrose agar, 37° C., 72 hours
Protocol: as §1

[6] = test system: Aspergillus flavus; experiment: as above; assay type: cell-based; conditions: Sabouraud's dextrose agar, 37° C., 72 hours
Protocol: as §1

[7] = A = concentration of comp. = 10,000 μL
[8] = B = concentration of comp. = 30,000 μL
[9] = C = concentration of comp. = 50,000 μL
[10] = A = concentration of comp. = 10,000 μg/mL

O=C(O)c1cn(C2CC2)c2cc(N3CCNCC3)c(F)cc2c1=O [Cip., ciprofloxacin, reference compound]
inhibition zone, Staphylococcus aureus [1, 7]: 43 mm
inhibition zone, Staphylococcus aureus [1, 8]: 44 mm
inhibition zone, Staphylococcus aureus [1, 9]: 53 mm
inhibition zone, Pseudomonas aeruginosa [2, 7]: 29 mm
inhibition zone, Pseudomonas aeruginosa [2, 8]: 30 mm
inhibition zone, Pseudomonas aeruginosa [2, 9]: 53 mm
inhibition zone, Bacillus Cereus [3, 7]: 29 mm
inhibition zone, Bacillus Cereus [3, 8]: 30 mm
inhibition zone, Bacillus Cereus [3, 9]: 42 mm
inhibition zone, Escherichia coli [4, 7]: 30 mm
inhibition zone, Escherichia coli [4, 8]: 39 mm
inhibition zone, Escherichia coli [4, 9]: 60 mm
inhibition zone, Chrysosporium keratinophilum [5, 10]: 29 mm
inhibition zone, Chrysosporium keratinophilum [5, 8]: 30 mm
inhibition zone, Chrysosporium keratinophilum [5, 9]: 53 mm
inhibition zone, Aspergillus flavus [6, 10]: 29 mm
inhibition zone, Aspergillus flavus [6, 8]: 30 mm
inhibition zone, Aspergillus flavus [6, 9]: 42 mm

N/C(=N\OC(=O)CSc1nnc(-c2ccc(Cl)cc2)o1)c1ccccc1 [Compound 3, N′-(2-(5-(4-chlorophenyl)-1,3,4-oxadiazol-2-ylthio)acetoxy)benzimidamide]
inhibition zone, Staphylococcus aureus [1, 7]: 38 mm
inhibition zone, Staphylococcus aureus [1, 8]: 42 mm
inhibition zone, Staphylococcus aureus [1, 9]: 52 mm
inhibition zone, Pseudomonas aeruginosa [2, 7]: 25 mm
inhibition zone, Pseudomonas aeruginosa [2, 8]: 29 mm
inhibition zone, Pseudomonas aeruginosa [2, 9]: 50 mm
inhibition zone, Bacillus Cereus [3, 7]: 27 mm
inhibition zone, Bacillus Cereus [3, 8]: 29 mm
inhibition zone, Bacillus Cereus [3, 9]: 40 mm
inhibition zone, Escherichia coli [4, 7]: 22 mm
inhibition zone, Escherichia coli [4, 8]: 33 mm
inhibition zone, Escherichia coli [4, 9]: 46 mm
melting point: ~ 174 °C and 174 °C
inhibition zone, Chrysosporium keratinophilum [5, 10]: 24 mm
inhibition zone, Chrysosporium keratinophilum [5, 8]: 29 mm
inhibition zone, Chrysosporium keratinophilum [5, 9]: 50 mm
inhibition zone, Aspergillus flavus [6, 10]: 27 mm
inhibition zone, Aspergillus flavus [6, 8]: 29 mm
inhibition zone, Aspergillus flavus [6, 9]: 38 mm
